Reference: US9376442B2, “Methylpyrrolopyrimidinecarboxamides” (Takeda GmbH, priority 2009, dated 2016)

Legend:
PDE4B1 = biological target: T1, PDE4B1 (Homo sapiens, UniProt Q07343); test: Inhibition of type 4 phosphodiesterase (PDE4) activity, modified SPA test with recombinant PDE4B1 expressed in SF21 insect cells; format: biochemical; settings: recombinant PDE4B1, 0.5 μM cAMP, read-out: PDE4B1 inhibitory values [measured as −log IC50 (mol/l)] (converted)
T1 construct: made in house; host or cells: SF21 insect cells (baculovirus; pCRBac vector), 1000 x g supernatant of homogenate
T1 sequence (Q07343 whole entry): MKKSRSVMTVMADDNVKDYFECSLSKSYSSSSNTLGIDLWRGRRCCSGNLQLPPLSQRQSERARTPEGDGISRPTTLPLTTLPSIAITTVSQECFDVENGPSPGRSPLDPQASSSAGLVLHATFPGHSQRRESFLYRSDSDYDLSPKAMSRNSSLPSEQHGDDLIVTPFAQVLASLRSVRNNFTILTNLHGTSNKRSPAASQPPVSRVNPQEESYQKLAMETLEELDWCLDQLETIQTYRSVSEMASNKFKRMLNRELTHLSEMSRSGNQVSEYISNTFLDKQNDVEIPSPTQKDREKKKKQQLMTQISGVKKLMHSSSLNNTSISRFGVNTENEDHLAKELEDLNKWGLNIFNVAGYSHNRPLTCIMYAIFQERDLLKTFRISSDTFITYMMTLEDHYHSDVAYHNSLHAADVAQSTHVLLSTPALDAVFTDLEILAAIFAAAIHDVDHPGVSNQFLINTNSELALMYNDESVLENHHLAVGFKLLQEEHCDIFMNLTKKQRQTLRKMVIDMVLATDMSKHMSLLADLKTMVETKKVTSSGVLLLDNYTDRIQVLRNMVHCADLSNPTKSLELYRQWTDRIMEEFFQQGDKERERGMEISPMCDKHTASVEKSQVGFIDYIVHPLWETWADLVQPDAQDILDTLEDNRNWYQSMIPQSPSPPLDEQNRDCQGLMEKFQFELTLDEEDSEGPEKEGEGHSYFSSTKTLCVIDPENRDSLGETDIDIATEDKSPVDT
Method: Method for Measuring Inhibition of the Type 4 Phosphodiesterase (PDE4) Activity:
The PDE4B1 (GB no. L20966) was a gift of Prof. M. Conti (Stanford University, USA). It was amplified from the original plasmid (pCMV5) via PCR with primers Rb18 (5′-[…]-3′) and Rb10 (5′-[…]-3′) and cloned into the pCRBac vector (Invitrogen, Groningen, NL).
The recombinant baculovirus was prepared by means of homologous recombination in SF9 insect cells. The expression plasmids were cotransfected with Baculo-Gold DNA (Pharmingen, Hamburg) using a standard protocol (Pharmingen, Hamburg). Wt virus-free recombinant virus supernatants were selected using plaque assay methods. After that, high-titre virus supernatants were prepared by amplifying 3 times. PDE4B1 was expressed in SF21 cells by infecting 2×10^6 cells/ml with an MOI (multiplicity of infection) between 1 and 10 in the serum-free medium Insect Express Sf9-S2 (PAA, Pasching, Austria). The cells were cultured at 28° C. for 48-72 hours, after which they were pelleted for 5-10 min at 1000×g and 4° C.
The SF21 insect cells were resuspended, at a concentration of approx. 10^7 cells/ml, in ice-cold (4° C.) homogenization buffer (20 mM Tris, pH 8.2, containing the following additions: 140 mM NaCl, 3.8 mM KCl, 1 mM EGTA, 1 mM MgCl2, 10 mM (3-mercaptoethanol, 2 mM benzamidine, 0.4 mM Pefablock, 10 μM leupeptin, 10 μM pepstatin A, 5 μM trypsin inhibitor) and disrupted by ultrasonication. The homogenate was then centrifuged for 10 min at 1000×g and the supernatant was stored at −80° C. until subsequent use (see below). The protein content was determined by the Bradford method (BioRad, Munich) using BSA as the standard.
PDE4B1 activity was inhibited by the compounds according to the present subject matter in a modified SPA (scintillation proximity assay) test, supplied by Amersham Biosciences (see procedural instructions “phosphodiesterase [3H]cAMP SPA enzyme assay, code TRKQ 7090”), carried out in 96-well microtitre plates (MTP's). The test volume is 100 μl and contains 20 mM Tris buffer (pH 7.4), 0.1 mg/ml of BSA, 5 mM Mg^2+, 0.5 μM cAMP (including about 50,000 cpm of [3H]cAMP), 1 μl of the respective substance dilution in DMSO and sufficient recombinant PDE (1000×g supernatant, see above) to ensure that 10-20% of the cAMP is converted under the said experimental conditions. […] After a preincubation of 5 min at 37° C., the reaction is started by adding the substrate (cAMP) and the assays are incubated for a further 15 min; after that, they are stopped by adding SPA beads (50 μl). In accordance with the manufacturer's instructions, the SPA beads had previously been resuspended in water, but were then diluted 1:3 (v/v) in water; the diluted solution also contains 3 mM IBMX to ensure a complete PDE activity stop. After the beads have been sedimented (>30 min), the MTP's are analyzed in commercially available luminescence detection devices. The corresponding IC50 values of the compounds for the inhibition of PDE4B1 activity are determined from the concentration-effect curves by means of non-linear regression.

PDE5A1 = biological target: T2, PDE5A1 (Homo sapiens, UniProt O76074); test: Inhibition of type 5 phosphodiesterase (PDE5) activity, modified SPA test with human platelet lysate; format: biochemical; settings: 0.5 μM cGMP, read-out: PDE5A1 inhibitory values [measured as −log IC50 (mol/l)] (converted)
T2 construct: from tissue; host or cells: human platelets from fresh donor blood (10,000 x g supernatant of sonicated lysate)
Procedure, shortened: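 Enzyme source is lysate from human platelets (10,000 g supernatant). Compound preincubated 5 min at 37° C in Tris pH 7.4 containing 1 μM motapizone and 10 nM of a PDE2 inhibitor. Reaction started with 0.5 μM cGMP ([3H] tracer) and run 15 min; SPA read-out, IC50 by non-linear regression.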

Structure (SMILES) | IC50 (PDE4B1) [µM] | IC50 (PDE5A1) [µM]
COCC(=O)N1CCC(NC(=O)c2c(C)[nH]c3c(-c4cc(F)ccc4OCC4CC4)ncnc23)CC1 [Example E39, 4-(2-Cyclopropylmethoxy-5-fluoro-phenyl)-6-methyl-5H-pyrrolo[3,2-d]pyrimidine-7-carboxylic acid [1-(2-methoxy-acetyl)-piperidin-4-yl]-amide] | 0.1 to 1 | 0.001 to 0.01
CCOC(=O)N1CCC(NC(=O)c2c(C)[nH]c3c(-c4cc(F)ccc4OCC4CC4)ncnc23)CC1 [Example E40, Ethyl 4-[({4-[2-(cyclopropylmethoxy)-5-fluorophenyl]-6-methyl-5H-pyrrolo[3,2-d]pyrimidin-7-yl}carbonyl)amino]piperidine-1-carboxylate] | 0.1 to 1 | < 0.001
CC(=O)N[C@H]1CC[C@H](NC(=O)c2c(C)[nH]c3c(-c4cc(F)ccc4OCC4CC4)ncnc23)CC1 [Example E41, N-(trans-4-acetamidocyclohexyl)-4-[2-(cyclopropylmethoxy)-5-fluorophenyl]-6-methyl-5H-pyrrolo[3,2-d]pyrimidine-7-carboxamide] | < 0.1 | < 0.001
CCC(=O)N[C@H]1CC[C@H](NC(=O)c2c(C)[nH]c3c(-c4cc(F)ccc4OCC4CC4)ncnc23)CC1 [Example E42, 4-[2-(Cyclopropylmethoxy)-5-fluorophenyl]-6-methyl-N-[trans-4-(propionylamino)cyclohexyl]-5H-pyrrolo[3,2-d]pyrimidine-7-carboxamide] | < 0.1 | < 0.001
COCC(=O)N[C@H]1CC[C@H](NC(=O)c2c(C)[nH]c3c(-c4cc(F)ccc4OCC4CC4)ncnc23)CC1 [Example E43, 4-[2-(Cyclopropylmethoxy)-5-fluorophenyl]-N-{trans-4-[(methoxyacetyl)amino]cyclohexyl}-6-methyl-5H-pyrrolo[3,2-d]pyrimidine-7-carboxamide] | < 0.1 | < 0.001
CCOC(=O)N[C@H]1CC[C@H](NC(=O)c2c(C)[nH]c3c(-c4cc(F)ccc4OCC4CC4)ncnc23)CC1 [Example E44, Ethyl {trans-4-[({4-[2-(cyclopropylmethoxy)-5-fluorophenyl]-6-methyl-5H-pyrrolo[3,2-d]pyrimidin-7-yl}carbonyl)amino]cyclohexyl}carbamate] | < 0.1 | < 0.001
CC(=O)N[C@H]1CC[C@@H](NC(=O)c2c(C)[nH]c3c(-c4cc(F)ccc4OCC4CC4)ncnc23)CC1 [Example E45, N-(cis-4-acetamidocyclohexyl)-4-[2-(cyclopropylmethoxy)-5-fluorophenyl]-6-methyl-5H-pyrrolo[3,2-d]pyrimidine-7-carboxamide] | 0.1 to 1 | 0.001 to 0.01
COc1ccc(OCC2CC2)c(-c2ncnc3c(C(=O)NC4CCN(C(C)=O)CC4)c(C)[nH]c23)c1 [Example E66, N-(1-acetylpiperidin-4-yl)-4-[2-(cyclopropylmethoxy)-5-methoxyphenyl]-6-methyl-5H-pyrrolo[3,2-d]pyrimidine-7-carboxamide] | 0.1 to 1 | < 0.001
CCC(=O)N1CCC(NC(=O)c2c(C)[nH]c3c(-c4cc(OC)ccc4OCC4CC4)ncnc23)CC1 [Example E67, 4-[2-(Cyclopropylmethoxy)-5-methoxyphenyl]-6-methyl-N-(1-propionylpiperidin-4-yl)-5H-pyrrolo[3,2-d]pyrimidine-7-carboxamide] | 0.1 to 1 | < 0.001
COCC(=O)N1CCC(NC(=O)c2c(C)[nH]c3c(-c4cc(OC)ccc4OCC4CC4)ncnc23)CC1 [Example E68, 4-[2-(Cyclopropylmethoxy)-5-methoxyphenyl]-N-[1-(methoxyacetyl)piperidin-4-yl]-6-methyl-5H-pyrrolo[3,2-d]pyrimidine-7-carboxamide] | 0.1 to 1 | < 0.001
COc1ccc(OCC2CC2)c(-c2ncnc3c(C(=O)N[C@H]4CC[C@H](NC(C)=O)CC4)c(C)[nH]c23)c1 [Example E69, N-(trans-4-acetamidocyclohexyl)-4-[2-(cyclopropylmethoxy)-5-methoxyphenyl]-6-methyl-5H-pyrrolo[3,2-d]pyrimidine-7-carboxamide] | 0.1 to 1 | < 0.001
CCC(=O)N[C@H]1CC[C@H](NC(=O)c2c(C)[nH]c3c(-c4cc(OC)ccc4OCC4CC4)ncnc23)CC1 [Example E70, 4-[2-(Cyclopropylmethoxy)-5-methoxyphenyl]-6-methyl-N-[trans-4-(propionylamino)cyclohexyl]-5H-pyrrolo[3,2-d]pyrimidine-7-carboxamide] | 0.1 to 1 | < 0.001
COCC(=O)N[C@H]1CC[C@H](NC(=O)c2c(C)[nH]c3c(-c4cc(OC)ccc4OCC4CC4)ncnc23)CC1 [Example E71, 4-[2-(Cyclopropylmethoxy)-5-methoxyphenyl]-N-{trans-4-[(methoxyacetyl)amino]cyclohexyl}-6-methyl-5H-pyrrolo[3,2-d]pyrimidine-7-carboxamide] | 0.1 to 1 | < 0.001
COc1ccc(OCC2CC2)c(-c2ncnc3c(C(=O)N[C@H]4CC[C@@H](NC(C)=O)CC4)c(C)[nH]c23)c1 [Example E72, N-(cis-4-acetamidocyclohexyl)-4-[2-(cyclopropylmethoxy)-5-methoxyphenyl]-6-methyl-5H-pyrrolo[3,2-d]pyrimidine-7-carboxamide] | 0.1 to 1 | < 0.001
CCC(=O)N[C@H]1CC[C@@H](NC(=O)c2c(C)[nH]c3c(-c4cc(OC)ccc4OCC4CC4)ncnc23)CC1 [Example E73, 4-[2-(Cyclopropylmethoxy)-5-methoxyphenyl]-6-methyl-N-[cis-4-(propionylamino)cyclohexyl]-5H-pyrrolo[3,2-d]pyrimidine-7-carboxamide] | 0.1 to 1 | < 0.001
COCC(=O)N[C@H]1CC[C@@H](NC(=O)c2c(C)[nH]c3c(-c4cc(OC)ccc4OCC4CC4)ncnc23)CC1 [Example E74, 4-[2-(Cyclopropylmethoxy)-5-methoxyphenyl]-N-{cis-4-[(methoxyacetyl)amino]cyclohexyl}-6-methyl-5H-pyrrolo[3,2-d]pyrimidine-7-carboxamide] | 0.1 to 1 | < 0.001
CC(=O)N1CCC(NC(=O)c2c(C)[nH]c3c(-c4cc(C)ccc4OCC4CC4)ncnc23)CC1 [Example E81, N-(1-Acetylpiperidin-4-yl)-4-[2-(cyclopropylmethoxy)-5-methylphenyl]-6-methyl-5H-pyrrolo[3,2-d]pyrimidine-7-carboxamide] | < 0.1 | < 0.001
CCC(=O)N1CCC(NC(=O)c2c(C)[nH]c3c(-c4cc(C)ccc4OCC4CC4)ncnc23)CC1 [Example E82, 4-[2-(Cyclopropylmethoxy)-5-methylphenyl]-6-methyl-N-(1-propanoylpiperidin-4-yl)-5H-pyrrolo[3,2-d]pyrimidine-7-carboxamide] | < 0.1 | < 0.001
COCC(=O)N1CCC(NC(=O)c2c(C)[nH]c3c(-c4cc(C)ccc4OCC4CC4)ncnc23)CC1 [Example E83, 4-[2-(cyclopropylmethoxy)-5-methylphenyl]-N-[1-(methoxyacetyl)piperidin-4-yl]-6-methyl-5H-pyrrolo[3,2-d]pyrimidine-7-carboxamide] | < 0.1 | < 0.001
CC(=O)N[C@H]1CC[C@H](NC(=O)c2c(C)[nH]c3c(-c4cc(C)ccc4OCC4CC4)ncnc23)CC1 [Example E84, N-[trans-4-(acetylamino)cyclohexyl]-4-[2-(cyclopropylmethoxy)-5-methylphenyl]-6-methyl-5H-pyrrolo[3,2-d]pyrimidine-7-carboxamide] | < 0.1 | < 0.001
